Patent publication US11820773B2, “Tricyclic compounds” (ALIGOS THERAPEUTICS, INC., priority 2020, dated 2023)

System: HBV
Assay: HBV-DNA antiviral assay using HepG2.117 cells (intracellular HBV DNA by qPCR)
Format: cell-based, genotype D HBV
Details: Hepatitis B virus, 72 h, HBV DNA inhibition, 3 days incubation, 2% DMSO
Description: The following assay procedure describes the HBV antiviral assay, using HepG2.117 cells, which carry a stably integrated genotype D HBV genome under the control of a Tet-off promoter, and intracellular HBV DNA quantification as endpoint. Cell viability is assessed in parallel by measuring the intracellular ATP content using CellTiter-Glo 2.0 (Promega).
On day 0, HepG2.117 cells (which are maintained in routine cell culture with doxycycline present in the medium at a final concentration of 1 μg/mL) were seeded in 96-well plates (white with clear bottom) at a density of 2.0×10^4 cells/well (0.1 mL/well) in medium without doxycycline to induce pgRNA transcription and subsequent formation of HBV particles. The cells were incubated at 37° C. and 5% CO2.
On day 1, medium was removed from each well, the test articles were diluted in culture medium without doxcycyline and 100 μL was added to cell culture wells (9 concentrations, 4-fold dilution). For each plate, 6 untreated (merely DMSO) wells were included. The final concentration of DMSO in the culture medium was 2%. Each plate was prepared in duplicate (one for HBV DNA extraction, one for CellTiter-Glo 2.0 measurement). The cells were incubated at 37° C. and 5% CO2 for 3 days.
On day 4, cell viability was assessed using CellTiter-Glo 2.0 and cell lysates were prepared for HBV DNA extraction and subsequent quantification by qPCR.
HBV DNA Quantification by qPCR
Medium was removed from each well and 100 μL of 0.33% NP-40 in H2O was added to each well. Plates were sealed, incubated at 4° C. for 5 mins, vortexed extensively and centrifuged briefly. Next, 35 μL of lysate was added to 65 μL QuickExtract DNA Extraction Solution (Epicentre) in a PCR plate for each well. PCR plate was incubated at 65° C. for 6 mins, 98° C. for 2 mins and finally cooled to 4° C. HBV DNA was then quantified by qPCR with HBV-specific primers and probes as specified in Table 1 using the Bio-Rad SSOAdvanced Universal Probes Supermix on a CFX96 machine (Bio-Rad). The PCR cycle program consisted of 95° C. for 3 mins, followed by 40 cycles at 95° C. for 10 sec and 60° C. for 30 sec.
A DNA standard was prepared by dilution of an IDT gBlock corresponding to the amplicon with concentrations ranging from 10^2 to 10^8 copies/input (i.e. per 4 μL) and used to generate a standard curve by plotting Cq values vs. HBV DNA standard concentration. The quantity of HBV DNA in each sample was determined by interpolating from the standard curve.
Cell viability was calculated as follows: % Cell viability=(luminescence value of test sample)/(average luminescence value of 2% DMSO control)×100%. HBV DNA inhibition was calculated as follows: 100−(HBV DNA copy number of test sample)/(average HBV DNA copy number of 2% DMSO control)×100%. No normalization to entecavir was required due to the excellent dynamic window of this assay. The CC50, EC50 and EC90 values were determined by dose-response curves fitted by GraphPad Prism using “log (agonist) vs. response—Variable slope”.

**Q.** Which EC50 does the source give for `C[C@@H]1Cc2c(n3ncc(Cc4ccccc4)c3n(-c3ccc(-c4noc(=O)n4C)cc3)c2=O)CN1C(=O)c1ccc(Br)c(C(F)(F)F)c1` (stereo in doubt) [Compound 41a, 4-methyl-3-[4-[rac-(11R)-5-benzyl-12-[4-bromo-3-(trifluoromethyl)benzoyl]-11-methyl-8-oxo-2,3,7,12-tetrazatricyclo[7.4.0.0^2,6]trideca-1(9),3,5-trien-7-yl]phenyl]-1,2,4-oxadiazol-5-one] here?
**A.** < 50 nM

**Q.** For `C[C@H]1Cc2c(n3ncc(Cc4ccccc4)c3n(-c3ccc(-c4noc(=O)n4C)cc3)c2=O)CN1C(=O)c1ccc(Br)c(C(F)(F)F)c1` (stereo in doubt) [Compound 41b, 4-methyl-3-[4-[rac-(11S)-5-benzyl-12-[4-bromo-3-(trifluoromethyl)benzoyl]-11-methyl-8-oxo-2,3,7,12-tetrazatricyclo[7.4.0.0^2,6]trideca-1(9),3,5-trien-7-yl]phenyl]-1,2,4-oxadiazol-5-one], which EC50 is on record?
**A.** 50 to 500 nM

**Q.** `CNc1n[nH]c2cc(-n3c(=O)c4c(n5ncc(Cc6ccccc6)c35)CN(C(=O)c3ccc(Br)c(C(F)(F)F)c3)[C@H](C)C4)ccc12` (stereo in doubt) [Compound 43a, rac-(11R)-5-benzyl-12-[4-bromo-3-(trifluoromethyl)benzoyl]-11-methyl-7-[3-(methylamino)-1H-indazol-6-yl]-2,3,7,12-tetrazatricyclo[7.4.0.0^2,6]trideca-1(9),3,5-trien-8-one] was tested. Which EC50 did it give?
**A.** < 50 nM

**Q.** How did the EC50 turn out when `CNc1n[nH]c2cc(-n3c(=O)c4c(n5ncc(Cc6ccccc6)c35)CN(C(=O)c3ccc(Br)c(C(F)(F)F)c3)[C@@H](C)C4)ccc12` (stereo in doubt) [Compound 43b, rac-(11S)-5-benzyl-12-[4-bromo-3-(trifluoromethyl)benzoyl]-11-methyl-7-[3-(methylamino)-1H-indazol-6-yl]-2,3,7,12-tetrazatricyclo[7.4.0.0^2,6]trideca-1(9),3,5-trien-8-one] was run?
**A.** < 50 nM

**Q.** `C[C@@H]1Cc2c(n3ncc(Cc4ccccc4)c3n(-c3ccc(-c4nc(=O)on4C)cc3)c2=O)CN1C(=O)c1ccc(Br)c(C(F)(F)F)c1` (stereo in doubt) [Compound 44a, 2-methyl-3-[4-[rac-(11R)-5-benzyl-12-[4-bromo-3-(trifluoromethyl)benzoyl]-11-methyl-8-oxo-2,3,7,12-tetrazatricyclo[7.4.0.0^2,6]trideca-1(9),3,5-trien-7-yl]phenyl]-1,2,4-oxadiazol-5-one] was tested. Which EC50 did it give?
**A.** < 50 nM

**Q.** With `C[C@H]1Cc2c(n3ncc(Cc4ccccc4)c3n(-c3ccc(-c4nc(=O)on4C)cc3)c2=O)CN1C(=O)c1ccc(Br)c(C(F)(F)F)c1` (stereo in doubt) [Compound 44b, 2-methyl-3-[4-[rac-(11S)-5-benzyl-12-[4-bromo-3-(trifluoromethyl)benzoyl]-11-methyl-8-oxo-2,3,7,12-tetrazatricyclo[7.4.0.0^2,6]trideca-1(9),3,5-trien-7-yl]phenyl]-1,2,4-oxadiazol-5-one] as the molecule, how does the EC50 read?
**A.** < 50 nM

**Q.** `C[C@@H]1Cc2c(n3ncc(CC4CCC4)c3n(-c3ccc(-c4nncn4C)cc3)c2=O)CN1C(=O)c1ccc(Br)c(C(F)(F)F)c1` (stereo in doubt) [Compound 45a, rac-(11R)-12-[4-bromo-3-(trifluoromethyl)benzoyl]-5-(cyclobutylmethyl)-11-methyl-7-[4-(4-methyl-1,2,4-triazol-3-yl)phenyl]-2,3,7,12-tetrazatricyclo[7.4.0.0^2,6]trideca-1(9),3,5-trien-8-one] was tested. Which EC50 did it give?
**A.** < 50 nM

**Q.** Which EC50 does the source give for `C[C@H]1Cc2c(n3ncc(CC4CCC4)c3n(-c3ccc(-c4nncn4C)cc3)c2=O)CN1C(=O)c1ccc(Br)c(C(F)(F)F)c1` (stereo in doubt) [Compound 45b, rac-(11S)-12-[4-bromo-3-(trifluoromethyl)benzoyl]-5-(cyclobutylmethyl)-11-methyl-7-[4-(4-methyl-1,2,4-triazol-3-yl)phenyl]-2,3,7,12-tetrazatricyclo[7.4.0.0^2,6]trideca-1(9),3,5-trien-8-one] here?
**A.** 50 to 500 nM

**Q.** Which EC50 does the source give for `Cc1nnnn1-c1ccc(-n2c(=O)c3c(n4ncc(Cc5ccccc5)c24)CN(C(=O)c2ccc(Br)c(C(F)(F)F)c2)[C@H](C)C3)cc1` (stereo in doubt) [Compound 46a, rac-(11R)-5-benzyl-12-[4-bromo-3-(trifluoromethyl)benzoyl]-11-methyl-7-[4-(5-methyltetrazol-1-yl)phenyl]-2,3,7,12-tetrazatricyclo[7.4.0.0^2,6]trideca-1(9),3,5-trien-8-one] here?
**A.** < 50 nM

**Q.** For `Cc1nnnn1-c1ccc(-n2c(=O)c3c(n4ncc(Cc5ccccc5)c24)CN(C(=O)c2ccc(Br)c(C(F)(F)F)c2)[C@@H](C)C3)cc1` (stereo in doubt) [Compound 46b, rac-(11S)-5-benzyl-12-[4-bromo-3-(trifluoromethyl)benzoyl]-11-methyl-7-[4-(5-methyltetrazol-1-yl)phenyl]-2,3,7,12-tetrazatricyclo[7.4.0.0^2,6]trideca-1(9),3,5-trien-8-one], which EC50 is on record?
**A.** 50 to 500 nM

**Q.** For `Cc1nnc(-c2ccc(-n3c(=O)c4c(n5ncc(Cc6ccccc6)c35)CN(C(=O)c3ccc(Br)c(C(F)(F)F)c3)[C@H](C)C4)cc2)[nH]1` (stereo in doubt) [Compound 47a, rac-(11R)-5-benzyl-12-[4-bromo-3-(trifluoromethyl)benzoyl]-11-methyl-7-[4-(5-methyl-4H-1,2,4-triazol-3-yl)phenyl]-2,3,7,12-tetrazatricyclo[7.4.0.0^2,6]trideca-1(9),3,5-trien-8-one], which EC50 is on record?
**A.** < 50 nM

**Q.** `Cc1nnc(-c2ccc(-n3c(=O)c4c(n5ncc(Cc6ccccc6)c35)CN(C(=O)c3ccc(Br)c(C(F)(F)F)c3)[C@@H](C)C4)cc2)[nH]1` (stereo in doubt) [Compound 47b, rac-(11S)-5-benzyl-12-[4-bromo-3-(trifluoromethyl)benzoyl]-11-methyl-7-[4-(5-methyl-4H-1,2,4-triazol-3-yl)phenyl]-2,3,7,12-tetrazatricyclo[7.4.0.0^2,6]trideca-1(9),3,5-trien-8-one] was tested. Which EC50 did it give?
**A.** < 50 nM

**Q.** With `C[C@@H]1Cc2c(n3ncc(CC4CCC4)c3n(-c3ccc(-c4nncn4C)cc3)c2=O)CN1C(=O)c1ccc(Br)c(Cl)c1` (stereo in doubt) [Compound 48a, rac-(11R)-12-(4-bromo-3-chloro-benzoyl)-5-(cyclobutylmethyl)-11-methyl-7-[4-(4-methyl-1,2,4-triazol-3-yl)phenyl]-2,3,7,12-tetrazatricyclo[7.4.0.0^2,6]trideca-1(9),3,5-trien-8-one] as the molecule, how does the EC50 read?
**A.** < 50 nM

**Q.** How did the EC50 turn out when `C[C@H]1Cc2c(n3ncc(CC4CCC4)c3n(-c3ccc(-c4nncn4C)cc3)c2=O)CN1C(=O)c1ccc(Br)c(Cl)c1` (stereo in doubt) [Compound 48b, rac-(11S)-12-(4-bromo-3-chloro-benzoyl)-5-(cyclobutylmethyl)-11-methyl-7-[4-(4-methyl-1,2,4-triazol-3-yl)phenyl]-2,3,7,12-tetrazatricyclo[7.4.0.0^2,6]trideca-1(9),3,5-trien-8-one] was run?
**A.** 50 to 500 nM

**Q.** With `C[C@@H]1Cc2c(n3ncc(Cc4ccccc4)c3n(-c3ccc(-c4ncnn4C)cc3)c2=O)CN1C(=O)c1ccc(Br)c(C(F)(F)F)c1` (stereo in doubt) [Compound 49a, rac-(11R)-5-benzyl-12-[4-bromo-3-(trifluoromethyl)benzoyl]-11-methyl-7-[4-(2-methyl-1,2,4-triazol-3-yl)phenyl]-2,3,7,12-tetrazatricyclo[7.4.0.0^2,6]trideca-1(9),3,5-trien-8-one] as the molecule, how does the EC50 read?
**A.** < 50 nM
